Reference: patent US10501461B2, “Tyrosine amide derivatives as Rho-kinase inhibitors” (CHIESI FARMACEUTICI S.P.A., priority 2017, dated 2019)

Experiments:
Rho kinase 2 (ROCK-II) = Rho kinase 2 (ROCK-II) (Homo sapiens, UniProt O75116); assay: In vitro Rho kinase inhibitory activity assay (ADP-Glo), Rho kinase 2; assay type: biochemical; conditions: 10 μM ATP, 25° C., expressed as range of activity
Procedure: (§1) The effectiveness of compounds of the present invention to inhibit Rho kinase activity can be determined in a 10 μl assay containing 40 mM Tris pH7.5, 20 mM MgCl2 0.1 mg/ml BSA, 50 μM DTT and 2.5 μM peptide substrate (Myelin Basic Protein) using an ADP-Glo kit (Promega). Compounds were dissolved in DMSO such that the final concentration of DMSO was 1% in the assay. All reactions/incubations are performed at 25° C. Compound (2 ul) and either Rho kinase 1 or 2 (4 μl) were mixed and incubated for 30 mins. Reactions were initiated by addition of ATP (4 μl) such that the final concentration of ATP in the assay was 10 μM. After a 1 hour incubation 10 μl of ADP-Glo Reagent was added and after a further 45 minute incubation 20 ul of Kinase Detection Buffer was added and the mixture incubated for a further 30 minutes. The luminescent signal was measured on a luminometer. […] Compounds were tested in dose-response format and the inhibition of kinase activity was calculated at each concentration of compound. To determine the IC50 (concentration of compound required to inhibit 50% of the enzyme activity) data were fit to a plot of % inhibition vs Log10 compound concentration using a sigmoidal fit with a variable slope and fixing the maximum to 100% and the minimum to 0%. To determine the Ki values the Cheng-Prusoff equation was utilized (Ki=IC50/(1+[S]/Km).

Rho kinase 1 (ROCK-I) = Rho kinase 1 (ROCK-I) (Homo sapiens, UniProt Q13464); assay: In vitro Rho kinase inhibitory activity assay (ADP-Glo), Rho kinase 1; assay type: biochemical; conditions: 10 μM ATP, 25° C., expressed as range of activity
Chain of Rho kinase 1 (ROCK-I) (Q13464 whole entry): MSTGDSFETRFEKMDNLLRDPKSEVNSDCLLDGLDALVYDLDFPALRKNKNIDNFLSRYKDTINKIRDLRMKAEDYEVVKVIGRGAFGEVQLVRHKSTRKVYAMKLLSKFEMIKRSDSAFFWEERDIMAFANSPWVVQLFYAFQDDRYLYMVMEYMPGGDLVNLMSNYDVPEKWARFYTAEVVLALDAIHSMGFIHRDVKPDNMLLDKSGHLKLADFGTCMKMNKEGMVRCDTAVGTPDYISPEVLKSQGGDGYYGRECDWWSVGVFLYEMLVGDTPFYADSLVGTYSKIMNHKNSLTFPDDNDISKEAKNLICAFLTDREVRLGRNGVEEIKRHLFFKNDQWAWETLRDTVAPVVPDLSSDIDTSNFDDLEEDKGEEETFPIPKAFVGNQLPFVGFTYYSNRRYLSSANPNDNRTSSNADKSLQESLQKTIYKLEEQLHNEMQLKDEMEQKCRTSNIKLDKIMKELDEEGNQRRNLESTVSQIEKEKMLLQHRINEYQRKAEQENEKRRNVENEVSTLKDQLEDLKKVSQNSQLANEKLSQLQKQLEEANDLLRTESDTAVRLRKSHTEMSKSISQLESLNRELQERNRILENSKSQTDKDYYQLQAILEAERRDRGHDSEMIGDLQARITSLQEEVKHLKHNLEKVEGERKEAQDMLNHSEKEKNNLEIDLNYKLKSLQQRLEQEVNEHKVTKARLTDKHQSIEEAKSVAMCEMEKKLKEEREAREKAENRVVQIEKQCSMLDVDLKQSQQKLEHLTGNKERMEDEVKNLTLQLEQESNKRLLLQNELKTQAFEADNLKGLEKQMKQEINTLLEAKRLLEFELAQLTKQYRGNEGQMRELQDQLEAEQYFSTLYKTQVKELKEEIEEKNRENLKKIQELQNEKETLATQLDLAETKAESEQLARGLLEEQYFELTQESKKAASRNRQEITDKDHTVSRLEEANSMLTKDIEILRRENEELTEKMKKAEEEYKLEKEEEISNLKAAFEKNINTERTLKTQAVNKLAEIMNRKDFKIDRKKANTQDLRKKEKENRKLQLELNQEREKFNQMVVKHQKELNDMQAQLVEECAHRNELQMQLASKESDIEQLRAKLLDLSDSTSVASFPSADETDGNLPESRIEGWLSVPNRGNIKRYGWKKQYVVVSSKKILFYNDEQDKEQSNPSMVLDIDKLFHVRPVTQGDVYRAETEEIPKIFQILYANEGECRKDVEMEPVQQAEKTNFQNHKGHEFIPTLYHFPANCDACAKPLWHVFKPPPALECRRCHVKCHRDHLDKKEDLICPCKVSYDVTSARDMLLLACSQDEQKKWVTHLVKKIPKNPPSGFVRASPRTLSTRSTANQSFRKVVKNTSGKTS
Procedure: as §1

Chain of Rho kinase 2 (ROCK-II) (O75116 whole entry): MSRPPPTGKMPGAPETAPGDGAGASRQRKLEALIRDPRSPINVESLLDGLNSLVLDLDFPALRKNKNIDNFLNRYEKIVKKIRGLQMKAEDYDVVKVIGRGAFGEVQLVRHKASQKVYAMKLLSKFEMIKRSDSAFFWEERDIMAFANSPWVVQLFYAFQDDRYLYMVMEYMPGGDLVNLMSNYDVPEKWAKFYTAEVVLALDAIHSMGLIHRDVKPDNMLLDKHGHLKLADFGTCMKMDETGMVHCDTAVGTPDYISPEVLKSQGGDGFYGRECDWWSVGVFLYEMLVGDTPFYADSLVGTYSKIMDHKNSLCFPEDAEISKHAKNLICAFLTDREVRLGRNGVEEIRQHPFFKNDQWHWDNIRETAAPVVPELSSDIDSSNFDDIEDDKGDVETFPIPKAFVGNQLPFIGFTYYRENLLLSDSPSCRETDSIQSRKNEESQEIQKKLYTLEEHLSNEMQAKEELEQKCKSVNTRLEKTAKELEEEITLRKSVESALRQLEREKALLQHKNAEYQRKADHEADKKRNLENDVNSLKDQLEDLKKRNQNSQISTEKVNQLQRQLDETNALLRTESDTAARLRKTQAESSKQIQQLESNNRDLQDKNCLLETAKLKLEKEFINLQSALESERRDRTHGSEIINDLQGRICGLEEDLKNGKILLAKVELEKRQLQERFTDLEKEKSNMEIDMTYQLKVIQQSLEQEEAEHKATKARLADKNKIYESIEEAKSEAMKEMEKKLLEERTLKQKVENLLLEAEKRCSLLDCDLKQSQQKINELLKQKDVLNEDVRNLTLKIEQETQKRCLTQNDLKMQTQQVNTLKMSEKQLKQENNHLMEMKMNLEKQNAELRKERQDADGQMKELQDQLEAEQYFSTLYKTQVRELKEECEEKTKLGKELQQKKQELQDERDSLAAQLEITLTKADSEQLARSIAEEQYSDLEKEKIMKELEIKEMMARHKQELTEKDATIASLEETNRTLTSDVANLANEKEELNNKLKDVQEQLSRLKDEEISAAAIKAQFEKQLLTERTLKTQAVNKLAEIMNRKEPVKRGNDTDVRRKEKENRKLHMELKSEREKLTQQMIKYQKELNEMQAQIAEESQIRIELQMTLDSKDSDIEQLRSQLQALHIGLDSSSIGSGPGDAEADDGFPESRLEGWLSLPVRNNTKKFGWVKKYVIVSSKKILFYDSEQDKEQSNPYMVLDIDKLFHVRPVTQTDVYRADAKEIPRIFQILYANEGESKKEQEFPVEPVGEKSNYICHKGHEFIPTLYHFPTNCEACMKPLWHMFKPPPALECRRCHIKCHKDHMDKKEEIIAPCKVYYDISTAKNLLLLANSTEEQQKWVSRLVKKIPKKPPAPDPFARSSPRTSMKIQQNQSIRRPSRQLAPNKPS

Ki (Rho kinase 2 (ROCK-II)) [nM] | Ki (Rho kinase 1 (ROCK-I)) [nM] | SMILES
< 3 | < 3 | Cc1c[nH]c2nccc(Oc3ccc(C[C@@H](C(=O)NC4CCCCC4)N(C)C)cc3)c12 [Example 184, (S)—N-cyclohexyl-2-(dimethylamino)-3-(4-((3-methyl-1H-pyrrolo[2,3-b]pyridin-4-yl)oxy)phenyl)propanamide]
< 3 | < 3 | Cc1c[nH]c2nccc(Oc3ccc(C[C@H](N)C(=O)N4CCN(Cc5cccnc5)CC4)cc3F)c12 [Example 28, (S)-2-amino-3-(3-fluoro-4-((3-methyl-1H-pyrrolo[2,3-b]pyridin-4-yl)oxy)phenyl)-1-(4-(pyridin-3-ylmethyl)piperazin-1-yl)propan-1-one]
> 30 | > 30 | CNC(=O)C(Cc1ccc(Oc2ccnc3[nH]ccc23)cc1)NCC1CCCCC1 (stereo not drawn) [Example 185, 3-(4-((1H-pyrrolo[2,3-b]pyridin-4-yl)oxy)phenyl)-2-((cyclohexylmethyl)amino)-N-methylpropanamide]
< 3 | < 3 | N[C@@H](Cc1ccc(Oc2ccnc3[nH]cc(Cl)c23)cc1)C(=O)NC1CCCCC1 [Example 191, (S)-2-amino-3-(4-((3-chloro-1H-pyrrolo[2,3-b]pyridin-4-yl)oxy)phenyl)-N-cyclohexylpropanamide]
> 30 | > 30 | N[C@@H](Cc1ccc(Oc2ncnc3[nH]ccc23)cc1)C(=O)NC1CCCCC1 [Example 225, (S)-3-(4-((7H-pyrrolo[2,3-d]pyrimidin-4-yl)oxy)phenyl)-2-amino-N-cyclohexylpropanamide]
< 3 | < 3 | Cc1c[nH]c2nccc(Oc3ccc(C[C@H](N)C(=O)NC4CCOCC4)cc3F)c12 [Example 54, (S)-2-amino-3-(3-fluoro-4-((3-methyl-1H-pyrrolo[2,3-b]pyridin-4-yl)oxy)phenyl)-N-(tetrahydro-2H-pyran-4-yl)propanamide]
< 3 | < 3 | NC(Cc1ccc(Oc2ccnc3[nH]ccc23)cc1)C(=O)Nc1ccc(C(F)(F)F)cc1 (single isomer, unassigned) [Example 91A, 3-(4-((1H-pyrrolo[2,3-b]pyridin-4-yl)oxy)phenyl)-2-amino-N-(4-(trifluoromethyl)phenyl)propanamide]
< 3 | < 3 | N[C@@H](Cc1ccc(Oc2ccnc3[nH]cc(-c4cnoc4)c23)cc1)C(=O)N1CCN(Cc2ccccc2)CC1 [Example 198, (S)-2-amino-1-(4-benzylpiperazin-1-yl)-3-(4-((3-(isoxazol-4-yl)-1H-pyrrolo[2,3-b]pyridin-4-yl)oxy)phenyl)propan-1-one]
< 3 | < 3 | Cc1c[nH]c2nccc(Oc3ccc(C[C@H](N)C(=O)N4CCN(Cc5cnccn5)CC4)cc3F)c12 [Example 155, (S)-2-amino-3-(3-fluoro-4-((3-methyl-1H-pyrrolo[2,3-b]pyridin-4-yl)oxy)phenyl)-1-(4-(pyrazin-2-ylmethyl)piperazin-1-yl)propan-1-one]
< 3 | < 3 | N[C@@H](Cc1ccc(Oc2ccnc3[nH]cc(Br)c23)cc1)C(=O)NC1CCOCC1 [Example 189, (S)-2-amino-3-(4-((3-bromo-1H-pyrrolo[2,3-b]pyridin-4-yl)oxy)phenyl)-N-(tetrahydro-2H-pyran-4-yl)propanamide]
< 3 | < 3 | N[C@@H](Cc1ccc(Oc2ccnc3[nH]cc(CO)c23)c(F)c1)C(=O)NC1CCCCC1 [Example 208, (S)-2-amino-N-cyclohexyl-3-(3-fluoro-4-((3-(hydroxymethyl)-1H-pyrrolo[2,3-b]pyridin-4-yl)oxy)phenyl)-propanamide]
3 to 30 | 3 to 30 | Cc1c[nH]c2nccc(Oc3ccc(CC(N)C(=O)N4CCCC4c4ccccc4)cc3F)c12 (single isomer, unassigned) [Example 85, 2-amino-3-(3-fluoro-4-((3-methyl-1H-pyrrolo[2,3-b]pyridin-4-yl)oxy)phenyl)-1-(2-phenylpyrrolidin-1-yl)propan-1-one]
